The text below walks through data of patent publication US10125098B2, “Therapeutic compounds and methods of use thereof” (GENENTECH, INC., priority 2014, dated 2018).

The structures appear in SMILES notation. Structures can show the parent of a compound that is named as a salt. Where two headings read alike, the source gives them in different places.

One data set deals with T1, human NaV1.7 (Homo sapiens, UniProt Q15858).
T1 construct: permanently transfected with an expression vector containing the full-length cDNA coding for the desired human sodium channel α-subunit; expressed in transfected cells; host or cells: HEK-293
T1 sequence (Q15858 1-1977 isoform Q15858-3): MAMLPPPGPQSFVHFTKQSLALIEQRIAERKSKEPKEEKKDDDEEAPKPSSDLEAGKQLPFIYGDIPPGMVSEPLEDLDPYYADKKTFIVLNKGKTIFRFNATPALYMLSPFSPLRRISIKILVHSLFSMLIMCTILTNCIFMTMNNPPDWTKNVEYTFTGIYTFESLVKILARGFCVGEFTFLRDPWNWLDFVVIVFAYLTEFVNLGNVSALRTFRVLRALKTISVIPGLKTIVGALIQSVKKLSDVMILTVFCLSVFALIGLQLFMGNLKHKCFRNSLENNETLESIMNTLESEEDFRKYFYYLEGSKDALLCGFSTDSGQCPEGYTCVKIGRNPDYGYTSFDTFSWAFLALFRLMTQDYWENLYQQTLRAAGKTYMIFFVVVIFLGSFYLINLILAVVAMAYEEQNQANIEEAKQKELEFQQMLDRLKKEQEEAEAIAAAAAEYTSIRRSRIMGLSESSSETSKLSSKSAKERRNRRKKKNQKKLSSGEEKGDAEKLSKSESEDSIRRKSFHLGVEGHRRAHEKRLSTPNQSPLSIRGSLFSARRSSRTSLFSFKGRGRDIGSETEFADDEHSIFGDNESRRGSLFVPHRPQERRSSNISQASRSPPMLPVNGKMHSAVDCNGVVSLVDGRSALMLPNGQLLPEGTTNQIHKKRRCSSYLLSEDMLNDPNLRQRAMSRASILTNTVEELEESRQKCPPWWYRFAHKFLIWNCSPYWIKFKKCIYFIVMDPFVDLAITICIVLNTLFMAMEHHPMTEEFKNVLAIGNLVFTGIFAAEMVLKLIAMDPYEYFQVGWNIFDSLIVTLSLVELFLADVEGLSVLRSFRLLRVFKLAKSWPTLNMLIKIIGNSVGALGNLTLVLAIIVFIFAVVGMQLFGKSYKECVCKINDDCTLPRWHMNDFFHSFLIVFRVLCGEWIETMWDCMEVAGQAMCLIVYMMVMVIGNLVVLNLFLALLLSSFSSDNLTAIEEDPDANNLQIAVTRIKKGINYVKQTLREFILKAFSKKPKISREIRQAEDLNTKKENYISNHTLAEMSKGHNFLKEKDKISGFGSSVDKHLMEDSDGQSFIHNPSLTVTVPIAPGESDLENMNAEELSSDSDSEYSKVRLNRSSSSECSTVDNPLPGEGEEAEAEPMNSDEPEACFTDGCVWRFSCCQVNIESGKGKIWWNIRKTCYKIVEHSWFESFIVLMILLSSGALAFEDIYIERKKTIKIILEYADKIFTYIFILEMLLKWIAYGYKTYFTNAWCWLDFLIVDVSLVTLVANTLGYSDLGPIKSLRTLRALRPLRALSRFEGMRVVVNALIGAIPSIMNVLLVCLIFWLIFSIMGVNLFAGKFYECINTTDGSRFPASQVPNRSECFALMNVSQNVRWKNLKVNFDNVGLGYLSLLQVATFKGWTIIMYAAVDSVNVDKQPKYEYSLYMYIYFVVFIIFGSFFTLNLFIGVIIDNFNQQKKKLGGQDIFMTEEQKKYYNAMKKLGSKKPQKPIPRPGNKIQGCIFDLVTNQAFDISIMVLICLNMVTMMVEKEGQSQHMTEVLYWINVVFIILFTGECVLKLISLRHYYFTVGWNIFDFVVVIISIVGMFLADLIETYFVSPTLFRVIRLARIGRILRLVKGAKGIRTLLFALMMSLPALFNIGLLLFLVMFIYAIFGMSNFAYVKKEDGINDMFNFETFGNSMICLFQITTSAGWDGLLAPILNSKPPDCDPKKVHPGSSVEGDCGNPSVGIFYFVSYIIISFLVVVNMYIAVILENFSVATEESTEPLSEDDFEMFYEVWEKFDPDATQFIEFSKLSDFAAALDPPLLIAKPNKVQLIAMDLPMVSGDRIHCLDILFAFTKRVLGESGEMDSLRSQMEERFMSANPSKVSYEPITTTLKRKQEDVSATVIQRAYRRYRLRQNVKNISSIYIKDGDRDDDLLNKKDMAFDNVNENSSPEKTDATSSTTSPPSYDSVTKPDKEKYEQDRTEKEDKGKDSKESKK
T1 sequence (Q07699 19-218 partner): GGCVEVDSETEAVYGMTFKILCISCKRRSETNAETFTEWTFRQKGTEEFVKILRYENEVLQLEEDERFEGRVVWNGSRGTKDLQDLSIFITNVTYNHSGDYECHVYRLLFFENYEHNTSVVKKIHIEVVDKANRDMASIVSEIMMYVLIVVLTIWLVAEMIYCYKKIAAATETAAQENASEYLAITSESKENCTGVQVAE
Put plainly: Patch voltage clamp electrophysiology assay (EP), NaV1.7. In kind it is cell-based. The settings on record: HEK-293 cells stably expressing NaV1.7 with β1 subunit; whole-cell patch clamp, membrane potential −60 mV (inactivated state). Put shortly:
(§1)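 HEK-293 cells stably expressing human α-subunit with β1; whole-cell patch clamp (PatchXpress or manual), ambient temperature, pH 7.4 external NaCl, CsF internal. Held at −60 mV (full inactivation), stepped to −150 mV for 20 ms, then test pulse; percent current decrease after compound wash-on taken as block.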

The next data set has as its target T2, hNav1.7 (Homo sapiens, UniProt Q15858).
T2 construct: expressed in transfected cells
Briefly: Tritiated compound binding (LBA) to membranes from cells expressing hNav1.7 and the β1 subunit, competitive binding. The settings on record: competitive binding vs 100 pM [3H]compound, 18 h, room temperature, membranes with hNav1.7 and β1 subunit. Put shortly:
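Membranes from cells expressing hNav1.7 with β1 were incubated 18 h at room temperature with 100 pM tritiated formula (I) compound and increasing test compound, in 100 mM NaCl, 20 mM Tris HCl pH 7.4, 0.01% BSA.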

In a further data set the target is T3, NaV1.5 (Homo sapiens, UniProt Q14524).
T3 construct: permanently transfected with an expression vector containing the full-length cDNA coding for the desired human sodium channel α-subunit; expressed in transfected cells; host or cells: HEK-293
T3 sequence (Q14524 whole entry): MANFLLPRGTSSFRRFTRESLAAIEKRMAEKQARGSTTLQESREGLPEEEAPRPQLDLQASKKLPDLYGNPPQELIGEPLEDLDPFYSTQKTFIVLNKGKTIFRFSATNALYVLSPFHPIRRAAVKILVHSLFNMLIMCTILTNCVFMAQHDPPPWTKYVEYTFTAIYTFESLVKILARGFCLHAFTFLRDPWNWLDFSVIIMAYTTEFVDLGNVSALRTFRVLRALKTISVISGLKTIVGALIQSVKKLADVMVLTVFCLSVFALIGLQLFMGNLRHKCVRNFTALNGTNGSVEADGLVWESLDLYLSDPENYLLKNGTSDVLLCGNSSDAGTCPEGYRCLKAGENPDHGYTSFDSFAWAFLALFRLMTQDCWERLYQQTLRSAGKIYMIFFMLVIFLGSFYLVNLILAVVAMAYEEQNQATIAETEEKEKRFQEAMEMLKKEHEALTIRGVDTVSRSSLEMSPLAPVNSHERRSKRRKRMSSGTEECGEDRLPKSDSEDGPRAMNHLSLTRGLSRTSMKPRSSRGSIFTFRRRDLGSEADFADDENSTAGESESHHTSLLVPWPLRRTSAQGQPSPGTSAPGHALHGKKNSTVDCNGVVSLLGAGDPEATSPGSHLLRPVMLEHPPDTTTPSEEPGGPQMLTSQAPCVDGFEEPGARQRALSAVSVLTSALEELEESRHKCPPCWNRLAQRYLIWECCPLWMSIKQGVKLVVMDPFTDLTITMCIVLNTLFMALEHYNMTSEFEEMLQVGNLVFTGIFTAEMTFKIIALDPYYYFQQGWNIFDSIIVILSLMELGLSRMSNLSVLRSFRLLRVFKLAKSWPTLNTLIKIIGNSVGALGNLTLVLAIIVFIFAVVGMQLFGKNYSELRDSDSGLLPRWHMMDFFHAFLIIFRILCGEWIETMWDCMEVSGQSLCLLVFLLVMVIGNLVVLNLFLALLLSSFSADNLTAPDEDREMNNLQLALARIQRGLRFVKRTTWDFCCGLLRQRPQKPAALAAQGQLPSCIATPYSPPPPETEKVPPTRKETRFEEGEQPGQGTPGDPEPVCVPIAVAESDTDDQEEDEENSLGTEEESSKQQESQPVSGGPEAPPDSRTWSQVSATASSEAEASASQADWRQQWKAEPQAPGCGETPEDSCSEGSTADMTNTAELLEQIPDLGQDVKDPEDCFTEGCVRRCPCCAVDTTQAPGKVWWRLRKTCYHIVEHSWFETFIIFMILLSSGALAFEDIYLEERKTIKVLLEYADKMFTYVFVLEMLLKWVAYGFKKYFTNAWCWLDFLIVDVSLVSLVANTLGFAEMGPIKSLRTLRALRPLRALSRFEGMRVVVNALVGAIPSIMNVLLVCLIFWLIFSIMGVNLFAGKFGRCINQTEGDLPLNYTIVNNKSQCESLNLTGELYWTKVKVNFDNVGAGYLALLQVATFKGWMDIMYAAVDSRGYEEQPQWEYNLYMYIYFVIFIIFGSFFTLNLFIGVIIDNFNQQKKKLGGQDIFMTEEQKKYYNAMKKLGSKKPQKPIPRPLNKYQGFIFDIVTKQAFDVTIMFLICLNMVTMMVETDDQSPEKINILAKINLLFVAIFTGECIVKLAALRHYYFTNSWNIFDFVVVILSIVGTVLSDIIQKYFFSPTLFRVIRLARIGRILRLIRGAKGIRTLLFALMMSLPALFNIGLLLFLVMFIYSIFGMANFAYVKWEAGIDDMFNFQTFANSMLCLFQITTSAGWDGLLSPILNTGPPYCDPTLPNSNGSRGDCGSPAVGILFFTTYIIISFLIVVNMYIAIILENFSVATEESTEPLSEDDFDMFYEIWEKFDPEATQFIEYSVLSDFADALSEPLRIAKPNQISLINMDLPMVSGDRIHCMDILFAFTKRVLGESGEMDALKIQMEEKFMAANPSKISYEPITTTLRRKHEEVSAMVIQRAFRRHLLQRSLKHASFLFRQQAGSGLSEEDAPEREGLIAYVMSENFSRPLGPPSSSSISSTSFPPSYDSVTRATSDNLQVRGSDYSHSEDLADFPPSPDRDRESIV
Briefly: Patch voltage clamp electrophysiology assay (EP), NaV1.5. Format: cell-based. Put shortly: as §1

The mark [1] stands for this setting: human, HEK-293 cells stably expressing human NaV1.5 with β1 subunit, pH 7.4, HEK-293 cells stably expressing NaV1.5 with β1 subunit, whole-cell patch clamp, membrane potential −60 mV (inactivated state).
The mark [2] stands for this setting: HEK-293 cells stably expressing NaV1.5 with β1 subunit, whole-cell patch clamp, membrane potential −60 mV (inactivated state), read-out: Nav1.5.

T2 sequence (Q15858 1-1977 isoform Q15858-3): as the sequence (Q15858 1-1977 isoform Q15858-3) above
T2 sequence (Q07699 19-218 partner): as the sequence (Q07699 19-218 partner) above

Regarding `O=C(O)[C@@H]1CCCN1C(=O)c1cc(C2CC2)c(OCC2CCN(Cc3cc(Cl)ccc3C(F)(F)F)CC2)cc1F` [Example 181, (S)-1-(4-((1-(5-chloro-2-(trifluoromethyl)benzyl)piperidin-4-yl)methoxy)-5-cyclopropyl-2-fluorobenzoyl)pyrrolidine-2-carboxylic acid], the IC50 is 0.23 µM on human NaV1.7, 0.05 µM at hNav1.7 and no less than 30 µM on NaV1.5 (setting [1]).

Take `O=C(O)[C@@H]1CCCN1C(=O)c1cc(C2CC2)c(COc2cc(Cl)cc(OC(F)(F)F)c2)cc1F` [Example 182, (S)-1-(4-((3-chloro-5-(trifluoromethoxy)phenoxy)methyl)-5-cyclopropyl-2-fluorobenzoyl)pyrrolidine-2-carboxylic acid]: the IC50 is 0.22 µM at human NaV1.7, 0.032 µM at hNav1.7 and 25 µM at NaV1.5 (setting [2]).

In the case of `CC(C)[C@H](NC(=O)c1cc(C2CC2)c(COc2cc(Cl)cc(OC(F)(F)F)c2)cc1F)C(=O)O` [Example 183, (S)-2-(4-((3-chloro-5-(trifluoromethoxy)phenoxy)methyl)-5-cyclopropyl-2-fluorobenzamido)-3-methylbutanoic acid], the IC50 was determined as 1.9 µM against human NaV1.7, 0.031 µM at hNav1.7 and 9.2 µM on NaV1.5 (setting [2]).

In the case of `O=C(O)[C@@H]1CCCN1C(=O)c1cc(C2CC2)c(COc2cnc(OCC(F)(F)C(F)F)c(C3CC3)c2)cc1F` [Example 184, (S)-1-(5-cyclopropyl-4-(((5-cyclopropyl-6-(2,2,3,3-tetrafluoropropoxy)pyridin-3-yl)oxy)methyl)-2-fluorobenzoyl)pyrrolidine-2-carboxylic acid], the IC50 was 1.3 µM on human NaV1.7, 0.46 µM at hNav1.7 and 23 µM at NaV1.5 (setting [2]).

In the case of `CC(C)COc1ncc(Oc2cc(F)c(C(=O)N[C@H](C(=O)O)C(C)C)cc2Cl)cc1Cl` [Example 185, (S)-2-(5-chloro-4-((5-chloro-6-isobutoxypyridin-3-yl)oxy)-2-fluorobenzamido)-3-methylbutanoic acid], the IC50 stood at 9.6 µM against human NaV1.7, 0.1 µM at hNav1.7 and 17 µM on NaV1.5 (setting [2]).

Consider `CC[C@@H](C)[C@H](NC(=O)c1cc(Cl)c(Oc2cnc(OCC(C)C)c(Cl)c2)cc1F)C(=O)O` [Example 186, (2S,3R)-2-(5-chloro-4-((5-chloro-6-isobutoxypyridin-3-yl)oxy)-2-fluorobenzamido)-3-methylpentanoic acid], for which the IC50 against human NaV1.7 turned out to be 8.3 µM; on hNav1.7, 0.35 µM; on NaV1.5 (setting [2]), 12 µM.

`CC(C)[C@@H](C(=O)O)N(C)C(=O)c1cc(C2CC2)c(COc2cc(Cl)cc(OC(F)(F)F)c2)cc1F` [Example 187, (S)-2-(4-((3-chloro-5-(trifluoromethoxy)phenoxy)methyl)-5-cyclopropyl-2-fluoro-N-methylbenzamido)-3-methylbutanoic acid]: the figures for the IC50 on human NaV1.7, on hNav1.7 and on NaV1.5 (setting [2]) were 7.3 µM, 3.3 µM and 11 µM, respectively.

`NC(=O)[C@@H]1CCCN1C(=O)c1cc(C2CC2)c(COc2cc(Cl)cc(OC(F)(F)F)c2)cc1F` [Example 188, (5)-1-(4-((3-chloro-5-(trifluoromethoxy)phenoxy)methyl)-5-cyclopropyl-2-fluorobenzoyl)pyrrolidine-2-carboxamide]: the IC50 is 6.6 µM against human NaV1.7, 9.1 µM on hNav1.7 and 16 µM on NaV1.5 (setting [2]).

Take `O=C(N[C@@H](CC1CC1)C(=O)O)c1cc(C2CC2)c(OCC23CC4CC(CC(C4)C2)C3)cc1F` [Example 189, (S)-2-(4-((3S,5S,7S)-adamantan-1-ylmethoxy)-5-cyclopropyl-2-fluorobenzamido)-3-cyclopropylpropanoic acid]: the values for the IC50 on human NaV1.7, on hNav1.7 and at NaV1.5 (setting [2]) were 4 µM, 0.12 µM and 15 µM, respectively.

Consider `O=C(O)[C@@H]1CCCN1C(=O)c1cc(C2CC2)c(OCC2CCN(Cc3cc(F)cc(Cl)c3)CC2)cc1F` [Example 190, (S)-1-(4-((1-(3-chloro-5-fluorobenzyl)piperidin-4-yl)methoxy)-5-cyclopropyl-2-fluorobenzoyl)pyrrolidine-2-carboxylic acid], for which the IC50 was 2.9 µM against human NaV1.7, 0.19 µM at hNav1.7 and no less than 30 µM at NaV1.5 (setting [1]).

With `O=C(O)[C@@H]1CCCN1C(=O)c1cc(Cl)c(Oc2cnc(OCC(F)(F)F)c(Cl)c2)cc1F` [Example 191, (S)-1-(5-Chloro-4-((5-chloro-6-(2,2,2-trifluoroethoxy)pyridin-3-yl)oxy)-2-fluorobenzoyl)pyrrolidine-2-carboxylic acid trifluoroacetate], the IC50 at human NaV1.7 is 19 µM; on hNav1.7, 2.7 µM; against NaV1.5 (setting [1]), no less than 30 µM.

As to `O=C(O)[C@@H]1CCCN1C(=O)c1cc(C2CC2)c(OCC2CCN(C(c3ccccc3)c3cc(Cl)cc(Cl)c3)CC2)cc1F` (stereo partly drawn) [Example 193, (2S)-1-(5-Cyclopropyl-4-((1-((3,5-dichlorophenyl)(phenyl)methyl)piperidin-4-yl)methoxy)-2-fluorobenzoyl)pyrrolidine-2-carboxylic acid trifluoroacetate], the IC50 turned out to be 0.99 µM at human NaV1.7, 0.02 µM at hNav1.7 and 7.6 µM on NaV1.5 (setting [2]).

Turning to `O=C(O)[C@@H]1CCCN1C(=O)c1cc(C2CCC2)c(OCC23CC4CC(CC(C4)C2)C3)cc1F` [Example 194, (S)-1-(4-(adamantan-1-ylmethoxy)-5-cyclobutyl-2-fluorobenzoyl)pyrrolidine-2-carboxylic acid trifluoroacetate], the IC50 was determined as 0.64 µM on human NaV1.7, 0.022 µM on hNav1.7 and 10 µM on NaV1.5 (setting [2]).

On to `Cc1nn(C2CCN(c3ccc(Cl)c(C(F)(F)F)n3)CC2)c2cc(F)c(C(=O)N3CCC[C@H]3C(=O)O)cc12` [Example 195, (S)-1-(1-(1-(5-chloro-6-(trifluoromethyl)pyridin-2-yl)piperidin-4-yl)-6-fluoro-3-methyl-1H-indazole-5-carbonyl)pyrrolidine-2-carboxylic acid trifluoroacetate], for which the figures for the IC50 at human NaV1.7, at hNav1.7 and against NaV1.5 (setting [1]) were 5.9 µM, 1.9 µM and no less than 30 µM, respectively.

Consider `CC1(COc2cc(F)c(C(=O)N3CCC[C@H]3C(=O)O)cc2C2CC2)CN(C(c2ccccc2)c2cc(Cl)cc(Cl)c2)C1` (stereo partly drawn) [Example 196, (2S)-1-(5-cyclopropyl-4-((1-((3,5-dichlorophenyl)(phenyl)methyl)-3-methylazetidin-3-yl)methoxy)-2-fluorobenzoyl)pyrrolidine-2-carboxylic acid trifluoroacetate], for which the IC50 against human NaV1.7 came out at 1.4 µM; on hNav1.7 it was 0.018 µM; on NaV1.5 (setting [2]), 13 µM.

With `O=C(O)[C@@H]1CCCN1C(=O)c1cc(C2CC2)c(OCC2CCN(Cc3nc(-c4ccccc4Cl)no3)CC2)cc1F` [Example 197, (S)-1-(4-((1-((3-(2-chlorophenyl)-1,2,4-oxadiazol-5-yl)methyl)piperidin-4-yl)methoxy)-5-cyclopropyl-2-fluorobenzoyl)pyrrolidine-2-carboxylic acid trifluoroacetate], the results for the IC50 at human NaV1.7, on hNav1.7 and against NaV1.5 (setting [1]) were 3.9 µM, 0.63 µM and no less than 30 µM, respectively.

On to `O=C(O)[C@@H]1CCC(=O)N1C(=O)c1cc(C2CC2)c(OCC23CC4CC(CC(C4)C2)C3)cc1F` [Example 198, (S)-1-(4-(adamantan-1-ylmethoxy)-5-cyclopropyl-2-fluorobenzoyl)-5-oxopyrrolidine-2-carboxylic acid], for which the results for the IC50 against human NaV1.7, on hNav1.7 and on NaV1.5 (setting [2]) were 4.5 µM, 1.1 µM and 18 µM, respectively.

As for `O=C(NO)[C@@H]1C[C@@H](F)CN1C(=O)c1cc(C2CC2)c(OCC23CC4CC(CC(C4)C2)C3)cc1F` [Example 199, 1-(4-(adamantan-1-ylmethoxy)-5-cyclopropyl-2-fluorobenzoyl)-4-fluoro-N-hydroxypyrrolidine-2-carboxamide], the IC50 was determined as 3.6 µM on human NaV1.7, 0.47 µM at hNav1.7 and 15 µM on NaV1.5 (setting [2]).

Take `O=C(O)[C@@H]1CC2(CC2)CN1C(=O)c1cc(C2CC2)c(OCC23CC4CC(CC(C4)C2)C3)cc1F` [Example 200, (S)-5-(4-(adamantan-1-ylmethoxy)-5-cyclopropyl-2-fluorobenzoyl)-5-azaspiro[2.4]heptane-6-carboxylic acid]: the IC50 turned out to be 0.79 µM at human NaV1.7, 0.084 µM on hNav1.7 and 12 µM against NaV1.5.

Regarding `O=C(c1cc(C2CC2)c(OCC23CC4CC(CC(C4)C2)C3)cc1F)N1C[C@H](F)C[C@H]1C(O)(C(F)(F)F)C(F)(F)F` [Example 201, (4-(adamantan-1-ylmethoxy)-5-cyclopropyl-2-fluorophenyl)((2S,4R)-4-fluoro-2-(1,1,1,3,3,3-hexafluoro-2-hydroxypropan-2-yl)pyrrolidin-1-yl)methanone], the IC50 on human NaV1.7 is 13 µM; on hNav1.7 it was no less than 10 µM; on NaV1.5 (setting [2]), 24 µM.

As for `CC1(C)[C@@H]2[C@@H](C(=O)O)N(C(=O)c3cc(C4CC4)c(OCC45CC6CC(CC(C6)C4)C5)cc3F)C[C@@H]21` [Example 202, (1R,2S,5S)-3-(4-(adamantan-1-ylmethoxy)-5-cyclopropyl-2-fluorobenzoyl)-6,6-dimethyl-3-azabicyclo[3.1.0]hexane-2-carboxylic acid], the figures for the IC50 on human NaV1.7, at hNav1.7 and on NaV1.5 (setting [2]) were 4.4 µM, 1.9 µM and 16 µM, respectively.
